Measured values as given in ChEMBL document CHEMBL3826931, “Salinomycin Hydroxamic Acids: Synthesis, Structure, and Biological Activity of Polyether Ionophore Hybrids” (ACS Med Chem Lett, 2016).
Calls of active or inactive are those of the source. The calls are words filed in the database; no cut-off is given here.

Assays:
JIMT-1 [1] = assay: Reduction in aldehyde dehydrogenase levels in human JIMT1 cells at 5 to 10 uM by ALDEFLUOR assay; assay type: functional, cell-based
[2] = Cytotoxicity against human JIMT1 cells after 72 hrs by MTT assay; assay type: functional, cell-based; conditions: JIMT-1, 72 h
MCF7 = assay: Cytotoxicity against human MCF7 cells after 72 hrs by MTT assay; assay type: functional, cell-based; conditions: MCF7, 72 h
JIMT-1 [3] = assay: Reduction in aldehyde dehydrogenase levels in human JIMT1 cells at 0.52 uM by ALDEFLUOR assay (reference value: 30 to 60%); assay type: functional; design: scale not given: the % may be the effect or the level left
[4] = Ionophoric activity in large unilamellar POPC/POPG (3:1) vesicles assessed as relaxation of potassium coupled-proton gradient by measuring decrease in internal pH at 1 pM after 300 secs by ratiometric pH reporter pyranin based spectroscopic analysis; assay type: ADME; conditions: 5 min
[5] = Ionophoric activity in large unilamellar POPC/POPG (3:1) vesicles assessed as relaxation of potassium coupled-proton gradient by measuring decrease in internal pH at 100 pM after 300 secs by ratiometric pH reporter pyranin based spectroscopic analysis; assay type: ADME; conditions: 5 min, 0.0001 µM

Activity [5] | Structure (SMILES) | Activity (JIMT-1 [1]) | IC50 [2] [µM] | IC50 (MCF7) [µM] | Activity (JIMT-1 [3]) [%] | Activity [4]
 | CC[C@@H](C(=O)[C@@H](C)[C@@H](O)[C@H](C)[C@@H]1O[C@@H]([C@@H](CC)C(=O)N(C)O)CC[C@@H]1C)[C@H]1O[C@]2(C=C[C@@H](O)[C@]3(CC[C@@](C)([C@H]4CC[C@](O)(CC)[C@H](C)O4)O3)O2)[C@H](C)C[C@@H]1C | inactive | > 20 | > 20 |  | 
 | CC[C@@H](C(=O)[C@@H](C)[C@@H](O)[C@H](C)[C@@H]1O[C@@H]([C@@H](CC)C(=O)N(C)OC)CC[C@@H]1C)[C@H]1O[C@]2(C=C[C@@H](O)[C@]3(CC[C@@](C)([C@H]4CC[C@](O)(CC)[C@H](C)O4)O3)O2)[C@H](C)C[C@@H]1C | inactive | 10.1 | 9.3 |  | 
 | CC[C@@H](C(=O)[C@@H](C)[C@@H](O)[C@H](C)[C@@H]1O[C@@H]([C@@H](CC)C(=O)O)CC[C@@H]1C)[C@H]1O[C@]2(C=C[C@@H](O)[C@]3(CC[C@@](C)([C@H]4CC[C@](O)(CC)[C@H](C)O4)O3)O2)[C@H](C)C[C@@H]1C [SALINOMYCIN] |  | 0.52 | 0.59 | 60 | Active
Active | CC[C@@H](C(=O)[C@@H](C)[C@@H](O)[C@H](C)[C@@H]1O[C@@H]([C@@H](CC)C(=O)NO)CC[C@@H]1C)[C@H]1O[C@]2(C=C[C@@H](O)[C@]3(CC[C@@](C)([C@H]4CC[C@](O)(CC)[C@H](C)O4)O3)O2)[C@H](C)C[C@@H]1C | inactive | 6.7 | 10 |  | 
 | CC[C@@H](C(=O)[C@@H](C)[C@@H](O)[C@H](C)[C@@H]1O[C@@H]([C@@H](CC)C(=O)NOC)CC[C@@H]1C)[C@H]1O[C@]2(C=C[C@@H](O)[C@]3(CC[C@@](C)([C@H]4CC[C@](O)(CC)[C@H](C)O4)O3)O2)[C@H](C)C[C@@H]1C | inactive | 17.3 | 16.3 |  | 
